The values below come from patent US9339038B2, “Herbicidal composition” (priority 2012, dated 2016).

Where a name gives a salt, the structure may show the parent alone.

What all share (assay type): in vivo
The test system of data set [1] is summer grass (Digitaria ciliaris (Retz.) Koeler). Nature of the data set: Test Example 7: foliar treatment of potted summer grass, visual growth inhibition rate on 7th day. To be noted: 7th day after treatment. The protocol:
Upland field soil was put into a 1/1,000,000 ha pot, and seeds of summer grass (Digitaria ciliaris (Retz.) Koeler) were sown. When the summer grass reached 4.0 to 5.0-leaf stage, predetermined amounts of EC formulation containing pyridate as an active ingredient and Monument WG (tradename) were diluted with water (in an amount corresponding to 300 L/ha) and applied for foliar treatment by a small sprayer.
On the 7th day after treatment, the state of growth of the summer grass was visually observed to determine the growth inhibition rate (%). The growth inhibition rate (%) (measured value) and the growth inhibition rate (%) calculated in the same manner as in the above Test Example 1 are shown in Table 7.

Data set [2] relates to green kyllinga (Kyllinga brevifolia Rottb. var. leiolepis). Put plainly: Test Example 1: foliar treatment of potted green kyllinga in heading stage, visual growth inhibition rate. The text has this:
When the herbicidal activity in a case where two active ingredients are combined, is larger than the simple sum of the respective herbicidal activities of the two active ingredients (the expected activity), it is called a synergistic effect. The activity expected by the combination of two active ingredients can be calculated as follows (Colby S. R., “Weed”, vol. 15, p. 20-22, 1967). E=(α+β)−(αβ)/100 where α: growth inhibition rate when treated with x (g/ha) of herbicide X,
β: growth inhibition rate when treated with y (g/ha) of herbicide Y,
E: growth inhibition rate expected when treated with x (g/ha) of herbicide X and y (g/ha) of herbicide Y.
That is, when the actual growth inhibition rate (measured value) is larger than the growth inhibition rate by the above calculation (calculated value), the activity by the combination can be regarded as showing a synergistic effect.
Upland field soil was put into a 1/1,000,000 ha pot, and rhizomes of green kyllinga (Kyllinga brevifolia Rottb. var. leiolepis) were planted. On the 59th day after planting, to the green kyllinga in heading stage, predetermined amounts of EC formulation containing pyridate as an active ingredient (tradename: Pyridate 600EC, manufactured by BCP), WG formulation containing flazasulfuron as an active ingredient (tradename: SHIBAGEN DF, manufactured by Ishihara Sangyo Kaisha, Ltd.), WG formulation containing trifloxysulfuron Na salt as an active ingredient (tradename: Monument WG, manufactured by Syngenta Japan K.K.), SC formulation containing nicosulfuron as an active ingredient (tradename: ONEHOPE NYUZAI, manufactured by Ishihara Sangyo Kaisha, Ltd.), WG formulation containing halosulfuron-methyl as an active ingredient (tradename: INPOOL DF, manufactured by Nissan Chemical Industries, Ltd.) and WG formulation containing chlorimuron-ethyl as an active ingredient (tradename: ATTRACTIVE, manufactured by MARUWA Biochemical Co., Ltd.) were diluted with water in an amount corresponding to 2,000 L/ha, and applied for foliar treatment by a small sprayer.
On the 14th day after treatment, the state of growth of the green kyllinga was visually observed to determine the growth inhibition rate (%) in accordance with the following evaluation standard. The growth inhibition rate (%) (measured value) and the growth inhibition rate (%) (calculated value) calculated by the Colby's formula are shown in Table 1.
Growth inhibition rate (%)=0 (equivalent to the non-treated area) to 100 (complete kill)

Data set [3] relates to prickly sida (Sida spinosa L.). Put plainly: Test Example 2: foliar treatment of potted prickly sida, visual growth inhibition rate. To be noted: 14th day after treatment, read-out: Growth inhibition rate (%) of prickly sida Measured value. The method, then: Upland field soil was put into a 1/1,000,000 ha pot, and seeds of prickly sida (Sida spinosa L.) were sown. When the prickly sida reached 5.5 to 5.8-leaf stage, predetermined amounts of a wettable powder containing pyridate as an active ingredient (tradename: Lentagran WP, manufactured by BCP) and ONEHOPE NYUZAI (tradename) were diluted with water in an amount of corresponding to 1,000 L/ha and applied for foliar treatment by a small sprayer.
On the 14th day after treatment, the state of growth of the prickly sida was visually observed to determine the growth inhibition rate (%). The growth inhibition rate (%) (measured value) and the growth inhibition rate (%) calculated in the same manner as in the above Test Example 1 are shown in Table 2.

Data set [4] relates to persian speedwell (Veronica persica Poir.). Nature of the data set: Test Example 6: foliar treatment of potted persian speedwell, visual growth inhibition rate. The note with it: 14th day after treatment, read-out: Growth inhibition rate (%) of persian speedwell Measured value. The method, then: Upland field soil was put into a 1/1,000,000 ha pot, and seeds of persian speedwell (Veronica persica Poir.) were sown. When the persian speedwell reached 4.3 to 5.2-leaf stage, predetermined amounts of EC formulation containing pyridate as an active ingredient and ONEHOPE NYUZAI (tradename) were diluted with water (in an amount corresponding to 300 L/ha) and applied for foliar treatment by a small sprayer.
On the 14th day after treatment, the state of growth of the persian speedwell was visually observed to determine the growth inhibition rate (%). The growth inhibition rate (%) (measured value) and the growth inhibition rate (%) calculated in the same manner as in the above Test Example 1 are shown in Table 6.

For data set [5], the system named is summer grass (Digitaria ciliaris (Retz.) Koeler). Nature of the data set: Test Example 8: foliar treatment of potted summer grass, visual growth inhibition rate on 14th day. To be noted: read-out: Growth inhibition rate (%) of summer grass Measured value. The text has this:
Upland field soil was put into a 1/1,000,000 ha pot, and seeds of summer grass (Digitaria ciliaris (Retz.) Koeler) were sown.

Data set [6] relates to green kyllinga (Kyllinga brevifolia Rottb. var. leiolepis). Nature of the data set: Test Example 4: single or repeated foliar treatment of green kyllinga (height 5 to 7 cm), visual growth inhibition rate. To be noted: Cyperus brevifolius, 21st day after first treatment. The protocol: Upland field soil was put into a 1/1,000,000 ha pot, and rhizomes of green kyllinga (Kyllinga brevifolia Rottb. var. leiolepis) were planted. When the green kyllinga reached a height of from 5 to 7 cm, a predetermined amount of EC formulation containing pyridate as an active ingredient was diluted with water (in an amount corresponding to 2,000 L/ha) and applied for foliar treatment by a small sprayer. Further, on the 7th day after the foliar treatment, second treatment was carried out in the same manner on part of the green kyllinga.
On the 21st day after the first treatment, the state of growth of the green kyllinga was visually observed to determine the growth inhibition rate (%).

The test system is the same in data set [7]. Put plainly: Test Example 5: autumn foliar treatment of green kyllinga, visual growth inhibition rate on 220th day. The note with it: Cyperus brevifolius, 220th day after treatment. The protocol:
Upland field soil was put into a 1/300,000 ha pot, and rhizomes of green kyllinga (Kyllinga brevifolia Rottb. var. leiolepis) were planted. In the autumn of the next year, a predetermined amount of EC formulation containing pyridate as an active ingredient was diluted with water (in an amount corresponding to 2,000 L/ha) and applied for foliar treatment by a small sprayer.
On the 220th day after treatment, the state of growth of the green kyllinga was visually observed to determine the growth inhibition rate (%).

Data set [8] shares this test system. Nature of the data set: Test Example 3: foliar treatment of green kyllinga at 5-leaf stage, visual growth inhibition rate. To be noted: Cyperus brevifolius, 21st day after treatment. The protocol: Upland field soil was put into a 1/1,000,000 ha pot, and rhizomes of green kyllinga (Kyllinga brevifolia Rottb. var. leiolepis) were planted. When the green kyllinga reached 5-leaf stage, a predetermined amount of EC formulation containing pyridate as an active ingredient was diluted with water (in an amount corresponding to 2,000 L/ha) and applied for foliar treatment by a small sprayer.
On the 21st day after treatment, the state of growth of the green kyllinga was visually observed to determine the growth inhibition rate (%).

The test system is the same in data set [9]. Nature of the data set: Test Example 10: foliar treatment of green kyllinga (height 6 to 7 cm), visual growth inhibition rate. To be noted: 27th day after treatment. The protocol:
(§1) Upland field soil was put into a 1/1,000,000 ha pot, and rhizomes of green kyllinga (Kyllinga brevifolia Rottb. var. leiolepis) were planted. When the green kyllinga reached a height of from 6 to 7 cm, predetermined amounts of Lentagran WP (tradename) and WG formulation containing as an active ingredient amicarbazone having the same mode of action as pyridate (tradename: Dinamic, manufactured by Arysta Life Science) were diluted with water (in an amount corresponding to 2,000 L/ha) and applied for foliar treatment by a small sprayer. Separately, upland field soil was put into a 1/300,000 ha pot, and turf of manilagrass (Zoysia matrella (L.) Merr.) was put. After the manilagrass took root, predetermined amounts of Lentagran WP (tradename) and Dinamic (tradename) were diluted with water (in an amount corresponding to 2,000 L/ha) and applied for foliar treatment by a small sprayer.
(§2) On the 27th day after treatment, the state of growth of green kyllinga was visually observed, and on the 28th day after treatment, the state of growth of the manilagrass was visually observed, to determine the growth inhibition rate (%).

Data set [10] concerns manilagrass (Zoysia matrella (L.) Merr.). Put plainly: Test Example 10: foliar treatment of manilagrass turf, visual growth inhibition rate (safety for turfgrass). To be noted: for Growth inhibition rate (%) of manilagrass: foliar, 28th day after treatment. The method, then:
as §1, §2

Setting [11] is: Cyperus brevifolius, read-out: Growth inhibition rate (%) of green kyllinga Measured value.

Take `COc1cc(OC)nc(NC(=O)NS(=O)(=O)c2ncccc2OCC(F)(F)F)n1` [Trifloxysulfuron Na salt]: the “Growth inhibition rate (%) of summer grass Measured value” in [1] (dose 100 g/ha) is listed as 40%. For the same compound, the “Growth inhibition rate (%) of green kyllinga Measured value” in data set [2] (dose 45 g/ha, 14th day after treatment) is 15%.
One may read the inhibition as the share of the control response that was lost under treatment. For the compound `COc1cc(OC)nc(NC(=O)NS(=O)(=O)c2ncccc2C(F)(F)F)n1` [Flazasulfuron, 1-(4,6-dimethoxypyrimidin-2-yl)-3-(3-trifluoromethyl-2-pyridylsulfonyl)urea], in [2] (Cyperus brevifolius, dose 50 g/ha, 14th day after treatment, read-out: Growth inhibition rate (%) of green kyllinga Measured value), the inhibition at 50 g/ha was determined as 33%.
`CCOC(=O)c1ccccc1S(=O)(=O)NC(=O)Nc1nc(Cl)cc(OC)n1` [Chlorimuron-ethyl, chlorimuron-ethyl]: in data set [2] (setting [11]), the inhibition at 100 g/ha worked out at 18%.
In the case of `COc1cc(OC)nc(NC(=O)NS(=O)(=O)c2ncccc2C(=O)N(C)C)n1` [Nicosulfuron, 2-(4,6-dimethoxypyrimidin-2-ylcarbamoylsulfamoyl)-N,N-dimethylnicotinamide], in data set [2] (Cyperus brevifolius, dose 80 g/ha, 14th day after treatment, read-out: Growth inhibition rate (%) of green kyllinga Measured value), the inhibition at 80 g/ha came out at 15%. Further, in [3] (dose 15 g/ha), the inhibition at 15 g/ha was 30%. In [4] (dose 100 g/ha), the inhibition at 100 g/ha turned out to be 5%.
In the case of `CCCCCCCCSC(=O)Oc1cc(Cl)nnc1-c1ccccc1` [Pyridate, O-6-chloro-3-phenylpyridazin-4-yl S-octylthiocarbonate], in data set [5] (dose 3000 g/ha, 14th day after treatment), the inhibition at 3000 g/ha was 50%. For the same compound, the inhibition at 1200 g/ha came out at 100% in [6] (1st treatment 1200 g/ha, 2nd treatment 1200 g/ha on 7th day) and 90% in data set [8] (dose 1200 g/ha). Besides, the inhibition at 2400 g/ha in data set [6] (1st treatment 2400 g/ha, no 2nd treatment) is 87%; in data set [8] (dose 2400 g/ha), 100%. The same compound gave an inhibition at 3600 g/ha in data set [6] (1st treatment 3600 g/ha, no 2nd treatment) of 89%. In addition, the inhibition at 2000 g/ha was 100% in data set [7] (dose 2000 g/ha); 76% in data set [9] (Cyperus brevifolius, dose 2000 g/ha); 50% in data set [2] (Cyperus brevifolius, dose 2000 g/ha, 14th day after treatment, read-out: Growth inhibition rate (%) of green kyllinga Measured value). For the same compound, the inhibition at 4000 g/ha is 100% in data set [7] (dose 4000 g/ha) and 94% in data set [9] (Cyperus brevifolius, dose 4000 g/ha). Besides, the inhibition at 300 g/ha in data set [1] (Digitaria ciliaris, dose 300 g/ha, read-out: Growth inhibition rate (%) of summer grass Measured value) turned out to be 8%; in data set [3] (dose 300 g/ha), 38%; in data set [4] (dose 300 g/ha) it was 70%. The “Growth inhibition rate (%) of manilagrass” value in data set [10] (dose 2000 g/ha) worked out at 5%; in data set [10] (dose 4000 g/ha), 15%; in [10] (dose 8000 g/ha) it was 15%. The safety for turfgrass entry in data set [10] (practical doses, summary of Table 9) is recorded as “high safety for turfgrass”. Moreover, the inhibition at 500 g/ha in data set [2] (Cyperus brevifolius, dose 500 g/ha, 14th day after treatment, read-out: Growth inhibition rate (%) of green kyllinga Measured value) was 18%.
As to `COC(=O)c1c(Cl)nn(C)c1S(=O)(=O)NC(=O)Nc1nc(OC)cc(OC)n1` [Halosulfuron-methyl, halosulfuron-methyl], the inhibition at 150 g/ha in data set [5] amounted to 0%. For the same compound, the inhibition at 375 g/ha in data set [2] (setting [11]) was 10%.
Take `CC(C)c1nn(C(=O)NC(C)(C)C)c(=O)n1N` [Amicarbazone, amicarbazone]: the “Growth inhibition rate (%) of green kyllinga” value in data set [9] (dose 400 g/ha) amounted to 30%; in data set [9] (dose 800 g/ha), 86%. In addition, in data set [10] (dose 800 g/ha), the “Growth inhibition rate (%) of manilagrass” value came out at 30%.
